What all share (format): cell-based
In assay [1] the test system is Enterococcus faecalis ATCC29212. The assay is described as follows: MIC, microbroth dilution. The following applies: rifS, BHI Broth, 37° C., read-out: MIC. The method in brief:
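Minimum Inhibitory Concentrations against Enterococcus faecalis were measured by microbroth dilution following NCCLS guidelines (National Committee for Clinical Laboratory Standards, 2000). The bacteria were grown in BHI Broth. Unlike the standard protocol, every growth incubation was carried out at 37° C.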

Assay [2] deals with Mycobacterium smegmatis ATCC700084. Description: MIC, microbroth dilution. The method in brief:
(§1)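 Values are minimum inhibitory concentrations obtained by the NCCLS microbroth dilution method. Incubations ran at 37 °C in species-specific media: Mueller-Hinton (cation-adjusted) for S. aureus, hematin/NAD-supplemented BHI for H. influenzae, ADC-enriched Middlebrook for M. smegmatis.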

Assay [3] concerns Staphylococcus aureus ATCC29213. The assay is described as follows: MIC, microbroth dilution. The following applies: rifS, Cation-Adjusted Mueller-Hinton Broth, 37° C., read-out: MIC. In short, it runs like this: as §1
For assay [4], the system named is Staphylococcus aureus ATCC29213 rpoB^D417Y. The assay is described as follows: microbe, parasite or virus in culture. As to the method: (§2) Representative compounds were assayed for antimicrobial activity as follows: Minimum Inhibitory Concentrations (“MICs”) were determined by the microbroth dilution method as per NCCLS guidelines (National Committee for Clinical Laboratory Standards, 2000), except that all growth incubations were conducted at 37° C. Bacterial cultures were tested in the following bacteriological media: S. aureus, S. epidermidis, and E. coli in Cation-Adjusted Mueller-Hinton Broth, S. pneumoniae in THY Broth supplemented with 1 mg/mL catalase under 5% CO2 atmosphere, S. pyogenes in THY Broth, E. faecalis in BHI Broth, H. influenzae in BHI Broth supplemented with 0.75 μL of 1 mg/mL NAD and 150 μL of 1 mg/ml hematin per 5 mL, and M smegmatis in Middlebrook Broth plus ADC Enrichment.

The subject of assay [5] is Staphylococcus aureus ATCC29213 rpoB^H418Y. Description: microbe, parasite or virus in culture. On the procedure: as §2
Assay [6] concerns Escherichia coli ATCC25922. The assay is described as follows: MIC, microbroth dilution. The following applies: rifS, Cation-Adjusted Mueller-Hinton Broth, 37° C.
For assay [7], the system named is Haemophilus influenzae ATCC10211. Description: MIC, microbroth dilution. The method in brief:
as §1

In assay [8] the test system is Staphylococcus epidermidis ATCC12228. Description: MIC, microbroth dilution. The following applies: rifS, Cation-Adjusted Mueller-Hinton Broth, 37° C. In short, it runs like this:
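Growth was measured in Middlebrook broth with ADC enrichment for M. smegmatis, BHI broth supplemented with NAD and hematin for H. influenzae, and cation-adjusted Mueller-Hinton broth for S. aureus. Minimum inhibitory concentrations came from NCCLS microbroth dilution at 37 °C.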

Assay [9] relates to Streptococcus pneumoniae ATCC6303. The assay is described as follows: MIC, microbroth dilution. The following applies: rifS, THY Broth supplemented with 1 mg/mL catalase under 5% CO2, 37° C.
The test system of assay [10] is Streptococcus pyogenes ATCC19615. The assay is described as follows: MIC, microbroth dilution. The following applies: rifS, THY Broth, 37° C.
A short description of assay [11]: MIC, summary over rifampin-susceptible Gram-positive strains. The following applies: read-out: MICs. On the procedure: as §2
For assay [12], the system named is H. influenzae ATCC 10211 and E. coli ATCC 25922. Description: MIC, summary over Gram-negative bacteria. On the procedure:
as §2

[13] abbreviates: Mycolicibacterium smegmatis, ATCC700084, rifS, Middlebrook Broth plus ADC Enrichment, 37° C., read-out: MIC.

Converted amounts (≈) assume the structure as drawn. Like-named read-outs stand apart in the source and are kept apart here.

In the case of `CO[C@H]1/C=C/O[C@@]2(C)Oc3c(C)c(O)c4c(c3C2=O)C(=O)C(N2CCOCC2)=C(NC(=O)/C(C)=C\C=C\[C@H](C)[C@H](O)[C@@H](C)[C@@H](O)[C@@H](C)[C@H](OC(=O)NCCc2ccccc2)[C@@H]1C)C4=O` [Example 25, 25-O-Desacetyl-(carbonyl-3-phenylethylamino) 3-morpholino rifamycin S], the results for the MIC in [1], in assay [2] (setting [13]) and in [3] were 0.25 to 62 µg/mL (≈ 0.282 to 70 µM), 0.063 to 31 µg/mL and 0.002 to 1.95 µg/mL (≈ 0.00226 to 2.2 µM), respectively.
Consider `CO[C@H]1/C=C/O[C@@]2(C)Oc3c(C)c(O)c4c(O)c(c(/C=N/N5CCN(C)CC5)c(O)c4c3C2=O)NC(=O)/C(C)=C\C=C\[C@H](C)[C@H](O)[C@@H](C)[C@@H](O)[C@@H](C)[C@H](OC(C)=O)[C@@H]1C` [rifampin], for which the MIC in assay [4] (Staphylococcus aureus, ATCC29213) is greater than 64 µg/mL; in assay [4] (rifR, Cation-Adjusted Mueller-Hinton Broth, 37° C.), greater than 64 µg/mL; in assay [5] (ATCC29213, rifR, Cation-Adjusted Mueller-Hinton Broth, 37° C.), 7.8 µg/mL (≈ 9.48 µM); in assay [5] (ATCC29213, text, rifampin-resistant strain S. aureus ATCC 29213 RpoB^H418Y), 8 µg/mL (≈ 9.72 µM); in assay [1] it was 0.98 µg/mL (≈ 1.19 µM); in assay [6], 16 µg/mL (≈ 19.4 µM). In addition, the MIC in assay [7] was determined as 0.24 µg/mL (≈ 0.292 µM); in assay [2] (setting [13]), 64 µg/mL; in assay [2] (mycobacterial strain M smegamatis ATCC 700084), 64 µg/mL (≈ 77.8 µM); in [3] it was 0.008 µg/mL (≈ 0.00972 µM); in assay [8], 0.03 µg/mL (≈ 0.0365 µM); in assay [9], 0.061 µg/mL (≈ 0.0741 µM). The MIC is 0.013 µg/mL (≈ 0.0158 µM) in assay [10], 0.03 to 1.3 µg/mL (≈ 0.0365 to 1.58 µM) in assay [11] and 0.24 to 16 µg/mL (≈ 0.292 to 19.4 µM) in assay [12].
Turning to `CO[C@H]1/C=C/O[C@@]2(C)Oc3c(C)c(O)c4c(c3C2=O)C(=O)C(N2CCOCC2)=C(NC(=O)/C(C)=C\C=C\[C@H](C)[C@H](O)[C@@H](C)[C@@H](O)[C@@H](C)[C@H](OC(=O)NCc2cccc(C(F)(F)F)c2)[C@@H]1C)C4=O` [Example 13, 25-O-Desacetyl-(carbonyl-1-(3-trifluoromethylbenzylamino)) 3-morpholino rifamycin S], the MIC in [1] was in the range of 0.25 to 62 µg/mL (≈ 0.266 to 66 µM); in [2] (setting [13]), 0.063 to 31 µg/mL; in [3] it was 0.002 to 1.95 µg/mL (≈ 0.00213 to 2.07 µM).
In the same order, the values of `CO[C@H]1/C=C/O[C@@]2(C)Oc3c(C)c(O)c4c(c3C2=O)C(=O)C(N2CCOCC2)=C(NC(=O)/C(C)=C\C=C\[C@H](C)[C@H](O)[C@@H](C)[C@@H](O)[C@@H](C)[C@H](OC(=O)NCCCCc2ccccc2)[C@@H]1C)C4=O` [Example 34, 25-O-Desacetyl-(carbonyl-4-phenyl-butylamine) 3-morpholino rifamycin S] are 0.25 to 62 µg/mL (≈ 0.274 to 67.8 µM), 0.063 to 31 µg/mL and 0.002 to 1.95 µg/mL (≈ 0.00219 to 2.13 µM).
In the case of `CO[C@H]1/C=C/O[C@@]2(C)Oc3c(C)c(O)c4c(c3C2=O)C(=O)C(N2CCOCC2)=C(NC(=O)/C(C)=C\C=C\[C@H](C)[C@H](O)[C@@H](C)[C@@H](O)[C@@H](C)[C@H](OC(=O)NCCCc2ccccc2)[C@@H]1C)C4=O` [Example 24, 25-O-Desacetyl-(carbonyl-3-phenylpropylamino) 3-morpholino rifamycin S], the MIC in assay [1] was in the range of 0.25 to 62 µg/mL (≈ 0.278 to 68.9 µM); in assay [2] (setting [13]), 0.063 to 31 µg/mL; in [3], 0.002 to 1.95 µg/mL (≈ 0.00222 to 2.17 µM).
In the case of `CCN1CC2CN(C(=O)O[C@H]3[C@H](C)[C@H](O)[C@H](C)[C@@H](O)[C@@H](C)/C=C/C=C(/C)C(=O)NC4=C(N5CCOCC5)C(=O)c5c(c(O)c(C)c6c5C(=O)[C@@](C)(O/C=C/[C@H](OC)[C@H]3C)O6)C4=O)CC2C1` (stereo partly drawn) [Example 29, 25-O-Desacetyl-(carbonyl-2-ethyl-octahydro-pyrrolo[3,4-c]pyrrole) 3-morpholino rifamycin S], the MIC in assay [1] fell in the range of 0.25 to 62 µg/mL (≈ 0.276 to 68.5 µM); in assay [2] (setting [13]) it was 0.063 to 31 µg/mL; in [3], 0.002 to 1.95 µg/mL (≈ 0.00221 to 2.15 µM).
In the same order, the values of `C#CCNC(=O)O[C@H]1[C@H](C)[C@H](O)[C@H](C)[C@@H](O)[C@@H](C)/C=C/C=C(/C)C(=O)NC2=C(N3CCOCC3)C(=O)c3c(c(O)c(C)c4c3C(=O)[C@@](C)(O/C=C/[C@H](OC)[C@H]1C)O4)C2=O` [Example 43, 25-O-Desacetyl-(carbonyl-prop-2-ynylamino) 3-morpholino rifamycin S] are 0.25 to 62 µg/mL (≈ 0.305 to 75.6 µM), 0.063 to 31 µg/mL and 0.002 to 1.95 µg/mL (≈ 0.00244 to 2.38 µM).
As to `COc1c(N2CCCC(NC3CCN(C(=O)O[C@H]4[C@H](C)[C@H](O)[C@H](C)[C@@H](O)[C@@H](C)/C=C/C=C(/C)C(=O)NC5=C(N6CCOCC6)C(=O)c6c(c(O)c(C)c7c6C(=O)[C@@](C)(O/C=C/[C@H](OC)[C@H]4C)O7)C5=O)CC3)C2)c(F)cc2c(=O)c(C(=O)O)cn(C3CC3)c12` (stereo partly drawn) [Example 59], the figures for the MIC in [1], in assay [2] (setting [13]) and in [3] were 0.25 to 62 µg/mL (≈ 0.204 to 50.7 µM), 0.063 to 31 µg/mL and 0.002 to 1.95 µg/mL (≈ 0.00163 to 1.59 µM), respectively.

For the origin of these results see US7250413B2, “C-25 carbamate rifamycin derivatives with activity against drug-resistant microbes” (Cumbre Pharmaceuticals Inc., priority 2004, dated 2007).
